In ChEMBL document CHEMBL1201862, “PubChem BioAssay data set” (2004) one finds AC50, EC50 and IC50 data, which are given here for 34 compounds.

By AC50 is commonly meant the concentration giving half of the maximal activity seen. For orientation: EC50 means the concentration at which the effect is half-maximal. One may read the IC50 as the concentration that gives 50% inhibition.

For one test, the target named is Cytochrome P450 3A4 (Homo sapiens, UniProt P08684).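 Note: CYP3A4 tested as one member of a cytochrome P450 panel screen.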
A further test deals with Cytochrome P450 2C9 (Homo sapiens, UniProt P11712).
Test [1] concerns the target T1, Heat shock factor protein 1 (Mus musculus, UniProt P38532).
T1 sequence (P38532 whole entry): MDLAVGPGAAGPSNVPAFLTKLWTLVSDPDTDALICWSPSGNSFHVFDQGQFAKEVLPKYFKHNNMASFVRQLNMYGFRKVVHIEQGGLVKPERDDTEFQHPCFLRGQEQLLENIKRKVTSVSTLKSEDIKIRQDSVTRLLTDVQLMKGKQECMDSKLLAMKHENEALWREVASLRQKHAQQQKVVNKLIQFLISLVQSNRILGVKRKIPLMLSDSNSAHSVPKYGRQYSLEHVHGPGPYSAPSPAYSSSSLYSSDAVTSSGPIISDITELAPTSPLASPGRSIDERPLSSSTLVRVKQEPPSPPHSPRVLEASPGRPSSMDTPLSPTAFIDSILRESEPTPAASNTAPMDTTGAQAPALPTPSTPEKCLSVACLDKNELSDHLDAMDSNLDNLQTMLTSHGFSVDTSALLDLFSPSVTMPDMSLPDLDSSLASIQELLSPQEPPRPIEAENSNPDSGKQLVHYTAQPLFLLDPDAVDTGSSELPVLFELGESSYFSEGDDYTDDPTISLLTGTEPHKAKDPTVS
As to the kind of experiment: inhibition of MG132-induced HSE-luciferase signal, confirmation, cell-based, NIH3T3, luminescence, dose retest (AID 2382).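 Note: NIH3T3 fibroblasts with HSF1-driven luciferase reporter stressed by proteasome inhibitor MG132; luminescence from HSF1-driven luciferase expression after 8 hours of MG132 stress.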 It counts as functional.

The nature of test [2]: Luminescence Cell-Based Dose Retest to Confirm Inhibitors of Cancer Stem Cells. [Related pubchem assays (depositor defined):AID2717, AID2721]. It counts as functional. The note with it: Homo sapiens.
For test [3], the target named is T2, Rac GTPase-activating protein 1 (Homo sapiens, UniProt Q9H0H5).
T2 sequence (Q9H0H5 whole entry): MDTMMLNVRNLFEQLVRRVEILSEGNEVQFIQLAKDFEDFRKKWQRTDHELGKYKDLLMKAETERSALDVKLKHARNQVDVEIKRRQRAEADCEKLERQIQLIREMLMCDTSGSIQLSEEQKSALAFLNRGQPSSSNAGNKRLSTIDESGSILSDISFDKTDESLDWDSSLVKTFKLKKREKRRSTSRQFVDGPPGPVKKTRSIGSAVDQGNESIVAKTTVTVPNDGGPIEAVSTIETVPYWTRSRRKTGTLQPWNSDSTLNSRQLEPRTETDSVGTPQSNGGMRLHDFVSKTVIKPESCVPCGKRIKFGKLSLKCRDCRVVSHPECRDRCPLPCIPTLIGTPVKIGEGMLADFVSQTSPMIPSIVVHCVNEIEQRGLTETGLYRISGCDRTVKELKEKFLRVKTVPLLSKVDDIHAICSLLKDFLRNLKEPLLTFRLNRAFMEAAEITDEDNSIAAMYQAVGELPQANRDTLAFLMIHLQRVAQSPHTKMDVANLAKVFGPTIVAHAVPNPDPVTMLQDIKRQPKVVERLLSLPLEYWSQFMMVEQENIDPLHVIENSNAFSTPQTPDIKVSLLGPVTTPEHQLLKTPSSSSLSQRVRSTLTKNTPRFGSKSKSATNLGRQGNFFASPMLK
Kind of test: MgcRacGAP GTPase-activating activity inhibitors, confirmation, biochemical, ADP Hunter fluorescence, primary and confirmatory (AID 624330). It counts as functional.

In a further test the target is Cytochrome P450 2C19 (Homo sapiens, UniProt P33261). Kind of test: Cytochrome panel assay with activity outcomes. Panel member name: p450-cyp2c19 Compounds with AC50 equal or less than 10 uM are considered active. The note with it: read-out: AC50. Type of test: functional.
Test [4] is described as follows: Luminescence Cell-Based Dose Confirmation HTS to Identify Activators of 5'UTR Stem-Loop Driven Alpha-Synuclein mRNA Translation in H4 Neuroglioblastoma Cells. [Related pubchem assays: 1829 (Project Summary), 1814 (Primary HTS)]. Type of test: functional.
Test [5] in a line: Luminescence Cell-Based Dose Response HTS to Identify Activators of Luciferase Translation or Activity in H4 […] Cells. [Related pubchem assays: 1829 (Project Summary), 1814 (Primary HTS)]. It counts as functional.
A further test relates to H4. As to the kind of experiment: Luminescence Cell-Based Dose Response HTS to Identify Activators of 5'UTR Stem-Loop Driven Prion Protein mRNA Translation in H4 Neuroglioblastoma Cells. [Related pubchem assays: 1829 (Project Summary), 1814 (Primary HTS)]. Type of test: functional. The note with it: Homo sapiens.
Test [6] is described as follows: inhibitors of intracellular T. cruzi replication, confirmation, NIH3T3 host cells, beta-gal luminescence (AID 2044).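 Note: intracellular parasites grown in NIH/3T3 mouse fibroblasts as host cells; luminescent beta-galactosidase reporter signal from transgenic T. cruzi replicating inside host cells; inhibitors lower the luminescence signal.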 Type of test: functional, cell-based.
Test [7] can be described thus: cytotoxicity toward NIH3T3 fibroblasts, dose response, counter-screen, cell-based, ATP luminescence, mouse fibroblasts (AID 2010).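 Note: cells exposed to compound for about 90 hours before reading.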 It counts as functional. (In general: Counterscreens check selectivity or assay interference.)
For the next test, the target named is T3, Cytochrome P450 1A2 (Homo sapiens, UniProt P05177).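 Note: PubChem cytochrome P450 panel assay, CYP1A2 panel member.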
T3 sequence (P05177 whole entry): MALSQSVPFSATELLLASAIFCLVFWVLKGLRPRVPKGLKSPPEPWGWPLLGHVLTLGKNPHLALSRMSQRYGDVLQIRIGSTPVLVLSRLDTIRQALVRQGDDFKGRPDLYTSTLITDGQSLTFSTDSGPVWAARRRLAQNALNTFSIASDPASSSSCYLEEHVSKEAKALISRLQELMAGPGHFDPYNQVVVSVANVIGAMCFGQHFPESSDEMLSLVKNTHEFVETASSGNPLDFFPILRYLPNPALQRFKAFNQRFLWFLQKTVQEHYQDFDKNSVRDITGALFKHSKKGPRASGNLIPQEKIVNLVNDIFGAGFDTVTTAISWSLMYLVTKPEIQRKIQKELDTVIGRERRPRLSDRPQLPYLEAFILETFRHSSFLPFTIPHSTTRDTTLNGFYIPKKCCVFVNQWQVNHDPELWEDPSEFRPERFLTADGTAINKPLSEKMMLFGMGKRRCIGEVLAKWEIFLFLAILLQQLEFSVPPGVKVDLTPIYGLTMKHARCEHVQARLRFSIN

Active and inactive are the calls of the source.

Sequence of Cytochrome P450 2C9 (P11712 whole entry): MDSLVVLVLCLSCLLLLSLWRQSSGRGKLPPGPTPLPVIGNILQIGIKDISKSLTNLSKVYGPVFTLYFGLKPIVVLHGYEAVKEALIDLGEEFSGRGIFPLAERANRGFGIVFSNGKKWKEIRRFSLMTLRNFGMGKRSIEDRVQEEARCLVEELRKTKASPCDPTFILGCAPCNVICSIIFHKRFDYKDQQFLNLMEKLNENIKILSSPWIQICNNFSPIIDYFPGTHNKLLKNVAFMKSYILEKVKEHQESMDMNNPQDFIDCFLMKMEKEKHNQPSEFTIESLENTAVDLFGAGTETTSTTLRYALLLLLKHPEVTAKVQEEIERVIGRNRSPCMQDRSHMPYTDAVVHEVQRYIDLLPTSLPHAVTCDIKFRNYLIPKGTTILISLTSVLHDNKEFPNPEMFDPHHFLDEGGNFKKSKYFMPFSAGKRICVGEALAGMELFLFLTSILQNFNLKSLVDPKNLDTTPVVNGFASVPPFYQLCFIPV
Sequence of Cytochrome P450 3A4 (P08684 whole entry): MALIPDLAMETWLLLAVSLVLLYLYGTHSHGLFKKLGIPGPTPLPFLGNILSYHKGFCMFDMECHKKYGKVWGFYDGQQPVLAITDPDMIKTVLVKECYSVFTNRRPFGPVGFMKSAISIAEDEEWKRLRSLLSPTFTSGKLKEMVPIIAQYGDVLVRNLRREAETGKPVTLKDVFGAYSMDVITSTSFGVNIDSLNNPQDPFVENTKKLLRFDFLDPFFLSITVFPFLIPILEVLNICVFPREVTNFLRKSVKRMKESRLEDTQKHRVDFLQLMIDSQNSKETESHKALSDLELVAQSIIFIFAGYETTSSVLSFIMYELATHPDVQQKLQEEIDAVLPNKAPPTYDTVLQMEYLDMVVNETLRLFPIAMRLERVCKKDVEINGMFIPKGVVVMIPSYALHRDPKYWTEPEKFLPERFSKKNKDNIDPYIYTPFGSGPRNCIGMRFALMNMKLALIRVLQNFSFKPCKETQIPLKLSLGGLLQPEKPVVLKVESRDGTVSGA
Sequence of Cytochrome P450 2C19 (P33261 whole entry): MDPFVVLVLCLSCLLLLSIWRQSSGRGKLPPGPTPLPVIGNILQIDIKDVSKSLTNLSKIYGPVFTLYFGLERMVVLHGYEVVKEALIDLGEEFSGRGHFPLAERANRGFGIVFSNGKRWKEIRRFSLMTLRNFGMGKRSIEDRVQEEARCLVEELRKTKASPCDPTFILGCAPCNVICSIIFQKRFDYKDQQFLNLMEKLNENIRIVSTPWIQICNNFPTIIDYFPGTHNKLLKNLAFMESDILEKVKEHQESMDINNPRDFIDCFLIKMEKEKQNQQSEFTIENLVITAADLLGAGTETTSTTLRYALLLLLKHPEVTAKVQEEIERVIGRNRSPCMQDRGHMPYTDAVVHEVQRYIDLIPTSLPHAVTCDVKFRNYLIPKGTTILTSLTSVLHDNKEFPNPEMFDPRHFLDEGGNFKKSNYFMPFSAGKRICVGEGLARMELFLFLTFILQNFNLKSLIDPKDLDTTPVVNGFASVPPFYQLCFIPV

On to `COc1ccc(CCn2c3c(c(=O)[nH]c2=O)C(NC(=O)c2cccs2)(C(F)(F)F)C(=O)N3)cc1OC` (stereo not given), for which the AC50 on Cytochrome P450 3A4 is 14.1 µM (inconclusive); at Cytochrome P450 2C9, 8.91 µM (inconclusive).

Turning to `CN(C)c1ccc(C2Nc3ccccc3C(=O)N2CCCN2CCOCC2)cc1` (stereo not given), the EC50 in test [1] is 2.02 µM (active).

On to `Cc1nnc(-c2ccc(Oc3ccc(Cl)cc3)c([N+](=O)[O-])c2)o1`, for which the concentration at half-maximal activity (AC50) in test [2] was < 0.16 µM (active).

With `COC(=O)c1ccc(N2CCN(C(C)=O)CC2)c(NC(=O)COc2ccccc2C)c1`, the EC50 in test [1] is > 195 µM (not active).

For the compound `Fc1ccc(CNCc2ccccc2Cl)cc1`, the EC50 in test [1] is > 195 µM (not active). In addition, the IC50 in [3] is 213 µM (active).

Turning to `CC(C)(C)CC(C)(C)c1cc(O)c(O)c(CN2CCCCC2)c1`, the AC50 is 3.98 µM (inconclusive) at Cytochrome P450 3A4 and 7.94 µM (inconclusive) on Cytochrome P450 2C9.

As for `CCOC(=O)CNC(=O)CSc1nnc(C)c(O)n1`, in test [1], the EC50 was > 195 µM (not active).

Consider `C=CCSc1nc2ccccc2c(=O)n1Cc1ccco1`, for which the AC50 at Cytochrome P450 2C9 was 3.98 µM (inconclusive).

Turning to `CCN(C(=O)Cn1c([N+](=O)[O-])cnc1C)c1ccccc1`, the EC50 in [1] is given as > 195 µM (not active).

With `CCOc1ccc(-n2cc(C(=O)NCc3ccco3)c3cc(OC)c(OC)cc3c2=O)cc1`, the AC50 on Cytochrome P450 3A4 is 22.4 µM (inconclusive); at Cytochrome P450 2C9, 4.47 µM (inconclusive).

`CC(C)c1ccccc1-n1c(S)nnc1-c1cccnc1`: the EC50 in [1] is given as > 195 µM (not active).

As for `COc1ccc(N2CCN(CC(O)COCCOc3ccc(Br)cc3)CC2)cc1` (stereo not given), in test [1], the EC50 is reported as > 195 µM (not active).

In the case of `C=CCN=C(S)Nc1ccc2nc(C)c(C)nc2c1`, on Cytochrome P450 2C9, the AC50 was 12.6 µM (inconclusive).

`COC(=O)C1=CN(Cc2ccc(OC)c(OC)c2)C=C(C(=O)OC)C1c1ccccc1F`: in test [1], the EC50 was > 195 µM (not active).

For `Cc1nc2cnc(N3CCOCC3)nc2n(Cc2ccc(F)cc2)c1=O`, the AC50 at Cytochrome P450 2C9 is 31.6 µM (inconclusive).

As for `CCCCN(CC)S(=O)(=O)N1CCC(C(=O)NCCCN2CCOCC2)CC1`, the AC50 at Cytochrome P450 2C19 is 1 µM (inconclusive); on Cytochrome P450 2C9, 25.1 µM (inconclusive).

As for `COc1ccc(NC(=O)C2c3cc(OC)c(OC)cc3C(=O)N(C)C2c2cccnc2)cc1OC` (stereo not given), at Cytochrome P450 2C9, the AC50 is 17.8 µM (inconclusive).

Take `CC(C)N1C(=O)CN(C2CCCCCC2)C(=O)C1c1ccccc1F` (stereo not given): the EC50 in test [4] was 10.8 µM (active); in test [5], 20.9 µM (active); with H4, 21 µM (active); in test [1] it was 77.6 µM (active).

As for `COC(=O)c1cccc(Nc2cc(C)nc(-c3ccccc3O)n2)c1`, the EC50 in test [6] was 2.74 µM (active); in test [7] it was 7.5 µM (active). Moreover, in test [2], the AC50 was 1.75 µM (active).

As for `O=C(CN1CCCCC1)Nc1cccc2c1OCO2`, the EC50 in test [1] is on record as > 195 µM (not active).

In the case of `COc1ccc(-c2cn(CCc3c[nH]c4ccccc34)nn2)cc1`, the AC50 in [2] was 2.86 µM (active).

As to `Cc1ccc(F)c(NC(=O)c2ccc(Cn3cc(Cl)cn3)cc2)c1`, the EC50 in test [1] is on record as > 195 µM (not active).

Consider `CC1CCN(c2nc(-c3cccnc3)nc3scc(-c4ccccc4)c23)CC1`, for which, in test [2], the AC50 is 1.36 µM (active).

`Cc1ccc(C)c(Cc2c(C)nc3c(C(=O)NCc4ccc5c(c4)OCO5)cnn3c2C)c1`: the EC50 in test [6] was 1.61 µM (active); in test [7], > 60 µM (not active). Also, the AC50 in test [2] is 4.98 µM (active).

As for `Cc1ccc(OCC(=O)NC(=S)Nc2ccccn2)c(Br)c1`, in test [1], the EC50 is < 0.16 µM (active).

As to `CC1C(=O)C(C)C(c2ccco2)NC1c1ccco1` (stereo not given), in test [1], the EC50 is > 195 µM (not active).

`COc1ccc(-c2cn(-c3ccccc3)nc2CO)cc1`: the EC50 in [1] was > 195 µM (not active).

As for `Cc1cc(C)c2nc(N3CCCC(C(=O)N4CCN(c5ncccn5)CC4)C3)sc2c1` (stereo not given), the AC50 in test [2] was 5.98 µM (active).

In the case of `CCC[C@@H]1C[C@@]1(CCC)C(NC(=O)OCc1ccccc1)c1ccc(-c2ccccc2)cc1` (stereo not given in full), the AC50 at Cytochrome P450 3A4 and at Cytochrome P450 2C9 was 3.98 µM (inconclusive) in each case.

Take `COC(=O)[C@@]1(Cc2ccc(OC)cc2)[C@H]2c3cc(C(=O)N(C)C)n(CCSCCO)c3C[C@H]2CN1C(=O)c1ccccc1`: the AC50 at Cytochrome P450 2C19 was 20 µM (inconclusive); on Cytochrome P450 2C9 it was 12.6 µM (inconclusive).

`COC(=O)c1ccc(NC(=O)c2ccccc2)o1`: the figures for the AC50 at Cytochrome P450 1A2 and on Cytochrome P450 2C9 were 2.82 µM (inconclusive) and 17.8 µM (inconclusive), respectively.

`COc1ccc(Nc2cc(C(=O)NCCCN3CCN(C)CC3)c3ccccc3n2)cc1`: the AC50 was 10 µM (inconclusive) at Cytochrome P450 1A2 and 14.1 µM (inconclusive) on Cytochrome P450 2C9.

Regarding `CCOc1ccccc1NC(=O)C1=C(C)NC(=O)NC1c1cccc(OC)c1OC` (stereo not given), the AC50 at Cytochrome P450 2C9 was 25.1 µM (inconclusive).

Take `CN(C)/N=C/C=C1\CCC/C(=C\c2ccc(F)c(F)c2)C1=O`: in [2], the AC50 was 8.22 µM (active).
